Experiments:
[1] = test system: Mouse In Vivo Acute Dextran Sulfate Sodium (DSS) Colitis Model; experiment: Intestinal barrier function in acute DSS colitis model (FITC-dextran); set-up: species or system C57Bl/6 mice
Experimental: Vehicle or a dose of Compound A1 or Compound 1 was administered once daily by oral gavage to C57Bl/6 mice. After 3 days of pre-dosing, dextran sulfate sodium (DSS) was simultaneously administered at 2.5-3% in drinking water, and appropriate water-only controls were included.
After 6 days of DSS administration, animals treated with Compound A1 were switched back to their regular water source and a 24-hour wash-out of both DSS and compound was provided. The animals were fasted on the morning of take-down and administered a single oral bolus dose of FITC-dextran. The animals were sacrificed by cardiac puncture 4 hours after administration and plasma was collected. The concentration of FITC-dextran present in plasma was determined by measuring fluorescence intensity on a standard plate reader, and fitting values back to a standard curve.
After 7 days of DSS administration, animals treated with Compound 1 were switched back to their regular water source and the animals were administered a single oral bolus dose of FITC-dextran (FD) four hours prior to necropsy. The animals were sacrificed by cardiac puncture and serum was collected. The concentration of FITC-dextran present in serum was determined by measuring fluorescence intensity on a standard plate reader, and fitting values back to a standard curve.

BCRP = BCRP (Homo sapiens (Human), UniProt Q9UNQ0); experiment: in vitro; assay type: in vitro ADME; conditions: for efflux transporter substrate assessment: Caco-2; for Efflux Ratio / Mean Papp (10^−6 cm/s) B to A / Mean Recovery (%) A to B / Mean Recovery (%) B to A / Papp B→A at 2 h, 2 μM / recovery at 2 h, 2 μM: human; for Efflux Ratio / Mean Papp (10^−6 cm/s) B to A / Mean Recovery (%) A to B / Mean Recovery (%) B to A: Caco-2, 2 h, 2 μM, pH 7.4; for Papp B→A at 2 h, 2 μM: Caco-2, pH 7.4, Mean Papp (10^−6 cm/s) B to A
Experimental: Caco-2 cells purchased from ATCC were seeded onto […] (PET) in 96-well BD Insert plates at 1×10^5 cells/cm^2, and refreshed medium every 4-5 days until to the 21st to 28th day for confluent cell monolayer formation. The transport buffer in the study was HBSS with 10 mM HEPES at pH 7.40±0.05. Compounds were tested at 2 μM in the presence or absence of 30 μM novobiocin bi-directionally in duplicate. E3S was tested at 5 μM in the presence or absence of 30 μM novobiocin bi-directionally in duplicate, while nadolol and metoprolol were tested at 2 μM in the absence of novobiocin in A to B direction in duplicate. Final DMSO concentration was adjusted to less than 1%. The plate was incubated for 2 hours in CO2 incubator at 37+1° C., with 5% CO2 at saturated humidity without shaking. All samples were mixed with acetonitrile containing internal standard and were centrifuged at 4000 rpm for 10 min. Subsequently, 100 μL supernatant solution was diluted with 100 μL distilled water for LC/MS/MS analysis. Concentrations of test and control compounds in starting solution, donor solution, and receiver solution were quantified by LC/MS/MS, using peak area ratio of analyte/internal standard.

[2] = Concentrations in colon post oral dosing; assay type: in vivo, mouse; conditions: PO 30 mg/kg
Experimental: A time course for colonic exposure to Compound A1 was determined in mouse following a single bolus oral (PO) gavage of 30 mg/kg of A1. Whole colon from cecum to rectum was collected at 2, 4, 6, and 8 hours post-dose and snap frozen. Tissue was homogenized and the concentration of A1 was measured.

[3] = test system: Acetyl CoA Carboxylase (ACC) Phosphorylation in Mouse Muscle; experiment: Level of ACC phosphorylation in mouse muscle; assay type: in vivo, C57BL/6J mice
Experimental: Systemic AMPK target engagement in vivo can be assessed by measuring the site-specific phosphorylation of a direct AMPK substrate, acetyl-coenzyme A carboxylase (ACC), in a well perfused tissue such as muscle.
Compounds were formulated in vehicle (0.25% methyl cellulose, 5% Tween 80, 0.02% sodium dodecyl sulfate (SDS) in Hanks' Buffered Salt Solution with Ca^2+ and Mg^2+). Male C57BL/6J mice were administered vehicle or compound once daily for 5 days. On the final day of dosing (day 1 for acute assessment, day 5 for sub-chronic assessment), mice were euthanized by cervical dislocation five hours post dose and samples of skeletal muscle (gastrocnemius) were removed and snap frozen in liquid nitrogen.
Frozen muscle tissues were homogenized. Homogenates were analyzed for protein concentration and equal amounts of protein were assayed for total and phosphorylated ACC (p-ACC) levels using Meso Scale Discovery's Multi-array assay kit. The ratio of p-ACC/total ACC was determined for each sample.

[4] = Caco-2, pH 7.4, Mean Recovery (%) A to B
[5] = Caco-2, pH 7.4, Mean Recovery (%) B to A

BCRP, sequence (Q9UNQ0 whole entry): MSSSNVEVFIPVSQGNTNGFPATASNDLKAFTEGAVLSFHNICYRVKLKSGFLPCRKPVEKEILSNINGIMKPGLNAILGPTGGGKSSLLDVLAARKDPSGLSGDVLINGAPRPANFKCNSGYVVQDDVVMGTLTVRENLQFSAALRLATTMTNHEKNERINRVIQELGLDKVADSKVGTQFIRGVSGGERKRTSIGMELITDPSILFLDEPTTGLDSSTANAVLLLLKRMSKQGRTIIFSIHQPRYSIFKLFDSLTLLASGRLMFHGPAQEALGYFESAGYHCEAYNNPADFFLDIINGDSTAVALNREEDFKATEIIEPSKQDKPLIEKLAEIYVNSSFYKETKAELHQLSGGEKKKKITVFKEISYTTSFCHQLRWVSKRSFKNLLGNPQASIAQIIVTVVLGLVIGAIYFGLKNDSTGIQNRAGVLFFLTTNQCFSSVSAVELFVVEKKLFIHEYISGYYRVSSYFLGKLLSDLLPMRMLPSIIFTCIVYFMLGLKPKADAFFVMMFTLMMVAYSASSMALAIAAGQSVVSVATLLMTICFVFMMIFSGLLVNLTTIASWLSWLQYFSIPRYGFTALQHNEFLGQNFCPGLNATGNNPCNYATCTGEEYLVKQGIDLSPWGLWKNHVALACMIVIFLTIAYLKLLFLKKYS

Structure (SMILES) | efflux transporter substrate assessment (BCRP) | Efflux Ratio (BCRP) | Mean Papp (10^−6 cm/s) B to A (BCRP) | Mean Recovery (%) A to B (BCRP) | Mean Recovery (%) B to A (BCRP) | Papp B→A at 2 h, 2 μM (BCRP) | recovery at 2 h, 2 μM (BCRP; [4]) | recovery at 2 h, 2 μM (BCRP; [5]) | other results
O=C(O)CSc1nc2cc(-c3ccc(-c4ccccc4O)cc3)c(Cl)cc2[nH]1 [Compound A1] | likely substrates of intestinal efflux transporters | 55.54 | 9.16 10^−6 cm/s | 61.16% | 78.94% | 17.1 ×10⁻⁶ cm/s | < 65.6% | 77.4% | Change in Fluorescence Intensity vs. Vehicle ([1]; 30 mg/kg PO once daily, plasma, 6 days DSS then 24-hour wash-out): −60%; colonic exposure profile ([2]; 2 to 8 hours post-dose): 122 to 255 µM; concentration in colon ([2]; 2 h post dosing): 254 µM; concentration in colon ([2]; 4 h post dosing): 122 µM; concentration in colon ([2]; 6 h post dosing): 128 µM; concentration in colon ([2]; 8 h post dosing): 205 µM
O=C(O)CSc1nc2nc(-c3ccc(-c4ccccc4O)cc3)c(Cl)cc2[nH]1 [Compound 1, 2-((6-chloro-5-(2′-hydroxy-[1,1′-biphenyl]-4-yl)-1H-imidazo[4,5-b]pyridin-2-yl)thio)acetic Acid] | likely substrates of intestinal efflux transporters | 44.89 | 6.98 10^−6 cm/s | 69.40% | 82.75% | 12.7 ×10⁻⁶ cm/s | < 68.8% | 79.5% | Change in Fluorescence Intensity vs. Vehicle ([1]; 3 mg/kg PO once daily, serum, 7 days DSS): −35%; Change in Fluorescence Intensity vs. Vehicle ([1]; 10 mg/kg PO once daily, serum, 7 days DSS): −69%; Change in Fluorescence Intensity vs. Vehicle ([1]; 30 mg/kg PO once daily, serum, 7 days DSS): −80%; Change in Fluorescence Intensity vs. Vehicle ([1]; 100 mg/kg PO once daily, serum, 7 days DSS): −96%; % p-ACC/ACC ratio change vs. Vehicle, Sub-chronic (5 days) ([3]; 30 mg/kg once daily for 5 days, five hours post dose, gastrocnemius): 29.6%; % p-ACC/ACC ratio change vs. Vehicle, Acute (5 hr) ([3]; 30 mg/kg, day 1, five hours post dose, gastrocnemius): 6.6%; ratio of pACC/total ACC compared with vehicle control mice ([3]; 30 mg/kg, one-way ANOVA vs vehicle (Dunnett's post-test)): not significantly changed

— patent publication US11279702B2, “AMPK activators” (Kallyope, Inc., priority 2020, dated 2022)
